For experiment [1], the target named is T1, CaM (Bos taurus, UniProt P62157).
T1 construct: made in house; host or cells: E. coli BL21 (DE3)
Nature of the experiment: Pull-down assay with immobilized protein and LSM libraries. Format: binding, bovine. Conditions: H14 library; 1:2 stoichiometry assumed; read-out: Surface mapping KD (apparent). The method in brief:
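CaM buffer was 20 mM HEPES pH 7.4, 150 mM NaCl, 5 mM CaCl2. LSM sublibrary members ([…]) incubated 30 min, RT, with equimolar His-tagged protein on Co-NTA resin. HPLC-MS measured unbound probes; bound fraction relative to resin-only background gave dissociation constants.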

Experiment [2] concerns the target T2, Gal-1 (Homo sapiens, UniProt P09382).
T2 construct: made in house; host or cells: E. coli BL21(DE3)
The experiment is described as above. In kind it is binding. Conditions: H14 library; 1:1 binding assumed; read-out: Surface mapping KD (apparent). An outline of the steps:
(§1)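 Buffers were HEPES pH 7.4 with 150 mM NaCl, plus 1 mM TCEP and 1 mM CaCl2 (50 mM HEPES) for S100A4 and S100B, 1 mM TCEP for Gal-1, and no additive for RecQ-WH. Immobilized protein at 64 µM was equilibrated 30 min with the LSM sublibrary, and unbound probes were measured by LC-MS.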

The next experiment concerns the target T3, S100B (Homo sapiens, UniProt P04271).
T3 construct: made in house; host or cells: Escherichia coli BL21(DE3)
T3 sequence (P04271 1-92): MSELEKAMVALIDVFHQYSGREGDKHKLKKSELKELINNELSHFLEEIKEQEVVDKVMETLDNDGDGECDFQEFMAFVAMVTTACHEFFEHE
Described as above. Format: binding. Conditions: H14 library; 1:1 binding assumed; read-out: Surface mapping KD (apparent). The method in brief:
as §1

The target of experiment [3] is T1, CaM. The experiment in a line: Competition pull-down with native ligand TRPV1-Ct15. Format: binding, bovine. Conditions: H14 library; competitor peptide 200 µM; read-out: Surface mapping KD (apparent), competition.
Experiment [4] deals with T2, Gal-1. Nature of the experiment: Competition pull-down with lactose. In kind it is binding. Conditions: H14 library; lactose 10 mM; read-out: Surface mapping KD (apparent), competition. An outline of the steps: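 His6-tagged proteins immobilized on Co-NTA resin at 64 µM final with 64-member LSM foldamer sublibraries (1 M each, as printed) in pH 7.4 HEPES/NaCl buffers (Ca2+/TCEP per target), 30 min RT; competitor peptides 200 µM final, lactose 10 mM for Gal-1. Bound fractions from LC-MS loss vs protein-free resin; KD assuming 1:1 binding.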

The target in another experiment is T4, S100A4 (Homo sapiens, UniProt P26447).
T4 construct: made in house; host or cells: Escherichia coli BL21(DE3)
T4 sequence (P26447 whole entry): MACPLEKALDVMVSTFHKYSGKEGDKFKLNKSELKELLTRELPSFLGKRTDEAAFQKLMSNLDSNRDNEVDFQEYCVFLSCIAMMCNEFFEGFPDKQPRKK
Nature of the experiment: Pull-down assay with immobilized protein and LSM libraries. Format: binding. Conditions: H14 library; 1:1 binding assumed; read-out: Surface mapping KD (apparent). The method in brief:
as §1

Among the data in PMC8162404, “Proteomimetic surface fragments distinguish targets by function” (Chemical Science, 2020) are Kd values, retold here.

T2 sequence (P09382 whole entry): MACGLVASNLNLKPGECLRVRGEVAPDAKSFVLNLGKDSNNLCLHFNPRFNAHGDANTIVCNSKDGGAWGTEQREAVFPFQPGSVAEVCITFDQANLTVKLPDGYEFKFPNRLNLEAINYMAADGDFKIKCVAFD

Consider `NC(=O)C[C@@H](CC(=O)N[C@H]1CCCC[C@@H]1C(=O)N[C@H]1CCCC[C@@H]1C(=O)N[C@H](CC(=O)N[C@H]1CCCC[C@@H]1C(N)=O)Cc1ccccc1)NC(=O)[C@H]1CCCC[C@@H]1N` [H14 NF], for which the Kd came out at 45 µM at CaM [1]; 264 µM on Gal-1 [2]; 123 µM at S100B; 339 µM at CaM [3]; 250 µM on Gal-1 [4].

As for `CC[C@H](C)[C@@H](CC(=O)N[C@H]1CCCC[C@@H]1C(N)=O)NC(=O)[C@H]1CCCC[C@@H]1NC(=O)[C@H]1CCCC[C@@H]1NC(=O)C[C@H](CC(N)=O)NC(=O)[C@H]1CCCC[C@@H]1N` [H14 NI], the Kd worked out at 80 µM at CaM [1]; 258 µM on Gal-1 [2]; 472 µM at S100A4; 283 µM at CaM [3]; 323 µM on Gal-1 [4].

With `NCCCC[C@@H](CC(=O)N[C@H]1CCCC[C@@H]1C(N)=O)NC(=O)[C@H]1CCCC[C@@H]1NC(=O)[C@H]1CCCC[C@@H]1NC(=O)C[C@H](CC(N)=O)NC(=O)[C@H]1CCCC[C@@H]1N` [H14 NK], the Kd amounted to 82 µM at CaM [1], 270 µM at S100B, 254 µM at CaM [3] and 342 µM at Gal-1 [4].

For the molecule `CC(C)C[C@@H](CC(=O)N[C@H]1CCCC[C@@H]1C(N)=O)NC(=O)[C@H]1CCCC[C@@H]1NC(=O)[C@H]1CCCC[C@@H]1NC(=O)C[C@H](CC(N)=O)NC(=O)[C@H]1CCCC[C@@H]1N` [H14 NL], the Kd came out at 76 µM at CaM [1]; 259 µM at Gal-1 [2]; 472 µM on S100A4; 345 µM on CaM [3]; 338 µM at Gal-1 [4].

In the case of `N=C(N)NCCC[C@@H](CC(=O)N[C@H]1CCCC[C@@H]1C(N)=O)NC(=O)[C@H]1CCCC[C@@H]1NC(=O)[C@H]1CCCC[C@@H]1NC(=O)C[C@H](CC(N)=O)NC(=O)[C@H]1CCCC[C@@H]1N` [H14 NR], the Kd on CaM [1] is 58 µM; on Gal-1 [2], 114 µM; on S100B, 128 µM; at CaM [3], 434 µM; at Gal-1 [4], 247 µM.

`CC(C)[C@@H](CC(=O)N[C@H]1CCCC[C@@H]1C(N)=O)NC(=O)[C@H]1CCCC[C@@H]1NC(=O)[C@H]1CCCC[C@@H]1NC(=O)C[C@H](CC(N)=O)NC(=O)[C@H]1CCCC[C@@H]1N` [H14 NV]: the Kd at CaM [1] was determined as 115 µM; at Gal-1 [2], 349 µM; at S100A4 it was 395 µM; on CaM [3], 261 µM; on Gal-1 [4], 378 µM.

Take `NC(=O)C[C@@H](CC(=O)N[C@H]1CCCC[C@@H]1C(=O)N[C@H]1CCCC[C@@H]1C(=O)N[C@H](CC(=O)N[C@H]1CCCC[C@@H]1C(N)=O)Cc1c[nH]c2ccccc12)NC(=O)[C@H]1CCCC[C@@H]1N` [H14 NW]: the Kd turned out to be 38 µM on CaM [1]; 169 µM on Gal-1 [2]; 98 µM on S100B; 269 µM at CaM [3]; 185 µM on Gal-1 [4].

Consider `CC[C@H](C)[C@@H](CC(=O)N[C@H]1CCCC[C@@H]1C(N)=O)NC(=O)[C@H]1CCCC[C@@H]1NC(=O)[C@H]1CCCC[C@@H]1NC(=O)C[C@H](CCC(N)=O)NC(=O)[C@H]1CCCC[C@@H]1N` [H14 QI], for which the Kd was 82 µM at CaM [1]; 456 µM at Gal-1 [2]; 256 µM on S100A4; 241 µM on CaM [3]; 486 µM on Gal-1 [4].

For `CC(C)C[C@@H](CC(=O)N[C@H]1CCCC[C@@H]1C(N)=O)NC(=O)[C@H]1CCCC[C@@H]1NC(=O)[C@H]1CCCC[C@@H]1NC(=O)C[C@H](CCC(N)=O)NC(=O)[C@H]1CCCC[C@@H]1N` [H14 QL], the Kd worked out at 87 µM on CaM [1]; 457 µM on Gal-1 [2]; 256 µM on S100A4; 241 µM at CaM [3]; 458 µM on Gal-1 [4].

On to `CSCC[C@@H](CC(=O)N[C@H]1CCCC[C@@H]1C(N)=O)NC(=O)[C@H]1CCCC[C@@H]1NC(=O)[C@H]1CCCC[C@@H]1NC(=O)C[C@H](CCC(N)=O)NC(=O)[C@H]1CCCC[C@@H]1N` [H14 QM], for which the Kd turned out to be 51 µM on CaM [1]; 364 µM on Gal-1 [2]; 448 µM at S100A4; 317 µM at CaM [3]; 406 µM on Gal-1 [4].

On to `CSCC[C@@H](CC(=O)N[C@H]1CCCC[C@@H]1C(N)=O)NC(=O)[C@H]1CCCC[C@@H]1NC(=O)[C@H]1CCCC[C@@H]1NC(=O)C[C@H](CO)NC(=O)[C@H]1CCCC[C@@H]1N` [H14 SM], for which the Kd stood at 43 µM on CaM [1]; 356 µM at Gal-1 [2]; 26 µM at S100A4; 210 µM at CaM [3]; 352 µM at Gal-1 [4].

Turning to `NC(=O)C[C@@H](CC(=O)N[C@H]1CCCC[C@@H]1C(N)=O)NC(=O)[C@H]1CCCC[C@@H]1NC(=O)[C@H]1CCCC[C@@H]1NC(=O)C[C@H](CO)NC(=O)[C@H]1CCCC[C@@H]1N` [H14 SN], the Kd at CaM [1] amounted to 184 µM; at Gal-1 [2], 310 µM; at CaM [3], 279 µM; at Gal-1 [4], 427 µM.

For `C[C@@H](O)[C@@H](CC(=O)N[C@H]1CCCC[C@@H]1C(N)=O)NC(=O)[C@H]1CCCC[C@@H]1NC(=O)[C@H]1CCCC[C@@H]1NC(=O)C[C@H](CO)NC(=O)[C@H]1CCCC[C@@H]1N` [H14 ST], the Kd was 215 µM at CaM [1], 323 µM at S100A4, 307 µM at CaM [3] and 413 µM on Gal-1 [4].

For `CC(C)[C@@H](CC(=O)N[C@H]1CCCC[C@@H]1C(N)=O)NC(=O)[C@H]1CCCC[C@@H]1NC(=O)[C@H]1CCCC[C@@H]1NC(=O)C[C@H](CO)NC(=O)[C@H]1CCCC[C@@H]1N` [H14 SV], the Kd at CaM [1] is 101 µM; on Gal-1 [2] it was 221 µM; on S100A4, 34 µM; on CaM [3], 398 µM; on Gal-1 [4], 476 µM.

As for `C[C@@H](CC(=O)N[C@H]1CCCC[C@@H]1C(N)=O)NC(=O)[C@H]1CCCC[C@@H]1NC(=O)[C@H]1CCCC[C@@H]1NC(=O)C[C@@H](NC(=O)[C@H]1CCCC[C@@H]1N)[C@@H](C)O` [H14 TA], the Kd at CaM [1] stood at 244 µM; at Gal-1 [2] it was 425 µM; on S100A4, 338 µM; at CaM [3] it was 398 µM; at Gal-1 [4] it was 426 µM.

`C[C@@H](O)[C@@H](CC(=O)N[C@H]1CCCC[C@@H]1C(=O)N[C@H]1CCCC[C@@H]1C(=O)N[C@@H](CC(=O)O)CC(=O)N[C@H]1CCCC[C@@H]1C(N)=O)NC(=O)[C@H]1CCCC[C@@H]1N` [H14 TD]: the Kd worked out at 314 µM at CaM [1], 326 µM on Gal-1 [2], 232 µM on CaM [3] and 415 µM at Gal-1 [4].

On to `C[C@@H](O)[C@@H](CC(=O)N[C@H]1CCCC[C@@H]1C(=O)N[C@H]1CCCC[C@@H]1C(=O)N[C@@H](CCC(=O)O)CC(=O)N[C@H]1CCCC[C@@H]1C(N)=O)NC(=O)[C@H]1CCCC[C@@H]1N` [H14 TE], for which the Kd at CaM [1] was 285 µM; at Gal-1 [2], 244 µM; at CaM [3] it was 281 µM; at Gal-1 [4], 366 µM.

As to `C[C@@H](O)[C@@H](CC(=O)N[C@H]1CCCC[C@@H]1C(=O)N[C@H]1CCCC[C@@H]1C(=O)N[C@@H](CO)CC(=O)N[C@H]1CCCC[C@@H]1C(N)=O)NC(=O)[C@H]1CCCC[C@@H]1N` [H14 TS], the Kd at CaM [1] came to 71 µM; at Gal-1 [2], 408 µM; at CaM [3], 487 µM; at Gal-1 [4], 390 µM.

Consider `C[C@@H](O)[C@@H](CC(=O)N[C@H]1CCCC[C@@H]1C(N)=O)NC(=O)[C@H]1CCCC[C@@H]1NC(=O)[C@H]1CCCC[C@@H]1NC(=O)C[C@@H](NC(=O)[C@H]1CCCC[C@@H]1N)[C@@H](C)O` [H14 TT], for which the Kd on CaM [1] is 253 µM; at Gal-1 [2] it was 366 µM; on CaM [3], 416 µM; at Gal-1 [4] it was 431 µM.

On to `CC(C)[C@@H](CC(=O)N[C@H]1CCCC[C@@H]1C(N)=O)NC(=O)[C@H]1CCCC[C@@H]1NC(=O)[C@H]1CCCC[C@@H]1NC(=O)C[C@@H](NC(=O)[C@H]1CCCC[C@@H]1N)[C@@H](C)O` [H14 TV], for which the Kd was determined as 113 µM at CaM [1], 399 µM at Gal-1 [2], 376 µM on CaM [3] and 424 µM at Gal-1 [4].

As for `C[C@@H](O)[C@@H](CC(=O)N[C@H]1CCCC[C@@H]1C(=O)N[C@H]1CCCC[C@@H]1C(=O)N[C@H](CC(=O)N[C@H]1CCCC[C@@H]1C(N)=O)Cc1ccc(O)cc1)NC(=O)[C@H]1CCCC[C@@H]1N` [H14 TY], the Kd at CaM [1] came to 84 µM; on Gal-1 [2], 297 µM; at S100B, 180 µM; at CaM [3], 226 µM; on Gal-1 [4], 338 µM.
